Consider one compound from patent US9433663B2, “Mobilization of hematopoietic stem cells” (Children's Hospital Medical Center, priority 2008, dated 2016).

One experiment has as its system LT-HSCs. The experiment can be described thus: Example 9 double-labeling of LT-HSC localization in the niche. As to conditions: 48 hours or earlier after mobilization. The format is in vivo, mice. Here is the method:
These studies use a double-labeling technique to monitor the localization change of LT-HSCs upon mobilization by CASIN.
AMD3100 and G-CSF induced mobilization are used as positive controls, while the control medium is used as a negative control. DBA/2, PeP3b, and C57Bl/6 mice are used in parallel to test the effects of variable mobilization capacity on the movement of LT-HSCs.
Basically, mice are fed BrdU (0.8 mg/ml) in drinking water for 10 days, followed by a chase period of seventy days, after which only the slow cycling LT-HSCs are found to retain the BrdU-label. At the end of the chase period of BrdU labeling, CASIN, AMD3100, G-CSF, or control is administrated on the mice and 3H-TdR is pulse-labeled 1 h before sacrificing the mice. Mice are sacrificed at different time points post administration of mobilizers or control in order to reflect the kinetic changes of HSC localization upon mobilization. And then bone sections are immunochemically stained with anti-BrdU antibody and alkaline phosphatase-labeled secondary IgG, followed by visualization with red substrate. In the meantime, autoradiography is performed to visualize cell incorporated with 3H-TdR. A cell is considered to be double-labeled if it contains greater than 5 silver grains per nucleus over a bright nuclear pattern of red staining.

The test system of the next experiment is LDBM cells. The experiment can be described thus: CFU-adhesion assay of LDBM cells on fibronectin. Type of experiment: cell-based, murine. The source says:
(§1) To shed light on potential roles of CASIN in HSPC mobilization, the effects of CASIN on Cdc42-related cellular functions was studied, including adhesion, migration, and F-actin polymerization of progenitor cells in 32D myeloid progenitors. […] SDF-1α stimulation causes a reorganization of F-actin into a cortical ring around the cells. […] Thirdly, to gain further insight into cellular specificity and efficacy of CASIN, and also to rule out possible toxic effects by CASIN, Cdc42-involved BM progenitor cell functions were examined, including proliferation, adhesion, migration, and F-actin polymerization, in Cdc42^+/+ cells in parallel with Cdc42^−/− cells. In line with additional studies in a Cdc42 conditional knockout mouse model as described herein, Cdc42^−/− LDBM cells have increased CFU-forming progenitors compared to those of Cdc42^+/+.
Murine LDBM cells from Cdc42^+/+ as well as Cdc42^−/− mice were used for CFU-adhesion/migration experiments as described previously. Briefly, for adhesion experiment, in the presence or absence of prior CASIN treatment at doses of 5 and 10 μM, 10^5 cells were plated onto each well of 48-well plates pre-coated with fibronectin fragment CH296, which contains integrin α4β1-binding site. Adherent cells then were harvested by cells dissociation buffer (Gibco, Carlsbad, Calif.), and further plated in CFU assay. […]

A further experiment concerns the target Rac (Homo sapiens, UniProt P63000). The experiment can be described thus: nucleotide exchange: Tiam-induced exchange of mant-GDP with Rac. Type of experiment: biochemical. The source says:
For example, even at 10 times the IC50 of Cdc42, a 50% inhibition of the association of mant-GDP with Rac or Rho was not achieved.

The subject of experiment [1] is N-RasMA93 cells. The experiment can be described thus: directional migration of N-RasMA93 leukemia cells towards SDF-1α (transwell). Type of experiment: cell-based, human. As to conditions: in vitro. Here is the method: FIG. 5B. Migration of leukemia cells towards SDF-1α without or with CASIN pre-treatment at doses of 5 and 10 μM was determined by transwell assays.
(§2) Like normal HSCs, their malignant counterpart, leukemia initiating cells (LICs) reside in their BM niches that provide the structural and physiological conditions supporting their survival and growth. LICs are resistant to traditional chemotherapy by interacting with their BM microenvironment, which are the culprits of leukemia relapses after a period of remission induced by chemotherapy. Detachment of LICs from their niche by CASIN would be a valuable supplementary therapy to the traditional cancer therapies (e.g., chemotherapies). First of all, in vitro effects of CASIN were examined in adhesion, migration, and F-actin polymerization of LICs, each of which is independently important for the retention of LICs in BM niches. Retroviral transduction of an MLL-AF9 fusion cDNA together with N-Ras oncogene into normal human CD34^+cord blood cells led to the establishment of cultures of N-Ras-MA93 cells that can initiate acute myeloid leukemia in NOG mice. […] To address it, a human AML model was set up by transplanting N-RasMA93 cells into NOG mice intravenously.

Experiment [2] has as its system progenitor cells in spleen and liver. The experiment can be described thus: CFU-C assays of spleen and liver after treatment. As to conditions: after CASIN injection. The format is in vivo, mice.
The test system of experiment [3] is Lin^−c-Kit^+ BM progenitors. The experiment can be described thus: F-actin immunofluorescence in Lin−c-Kit+ BM progenitors. Type of experiment: cell-based, murine. As to conditions: double-sorted Lin^−c-Kit^+ BM progenitors; CASIN pre-treatment at 5 or 10 μM.
From the text: as §1
Cells then were stimulated with 100 ng/ml SDF-1α for 45 secs, and further stained with Rhodamine/Phalloidin for actin and DAPI for nucleus as described herein.

In experiment [4] the test system is N-RasMA93 cells. The experiment can be described thus: adhesion of N-RasMA93 leukemia cells via CH296. As to conditions: in vitro. Type of experiment: cell-based, human. The protocol:
FIG. 5C. Adhesion of leukemia cells via CH296 without or with CASIN pre-treatment at doses of 5 and 10 μM was examined.
as §2

Consider `OCCNC1CCCc2c1[nH]c1ccc(-c3ccccc3)cc21` (stereo not drawn) [CASIN], for which the “number of BrdU-labeled LT-HSC in bone marrow niche” value in the experiment with LT-HSCs was “reduced”. The “adhesion of colony-forming progenitors to fibronectin surface” value in the experiment on LDBM cells (Cdc42^+/+ LDBM cells) was “dose-dependently inhibited”. Besides, the “adhesion activity of Cdc42^−/− cells” value in the experiment with LDBM cells (Cdc42^−/− LDBM cells) is on record as “did not have additive effects”. Also, the “Tiam induced nucleotide exchange of mant-GDP with Rac” value at Rac (FIG. 6) is on record as “did not affect”. Moreover, the “inhibition of the association of mant-GDP with Rac” value on Rac (at 10 times the IC50 of Cdc42) is reported as less than 50%. Further, the “directional migration capacity of N-RasMA93 cells” value with N-RasMA93 cells [1] is “significantly impaired”. Moreover, in experiment [2], the “progenitor cells found in spleen and liver” value is given as “increased level”. The “SDF-1α mediated reorganization of F-actin into cortical actin ring” value in experiment [3] was “lost their capacities to reorganize F-actin into the cortical actin ring”. For the same compound, in the experiment on N-RasMA93 cells [4], the “adhesion capacity of N-RasMA93 cells” value was “not affected significantly”.
